# Source: ChEMBL document CHEMBL1201862, “PubChem BioAssay data set” (2004)
# The source made the active and inactive calls.
# Key:
# [1] = alpha-synuclein stem-loop luciferase translation blockers – H4 neuroglioma cells, luminescence, confirmation (AID 1988); format: functional, cell-based
# [2] = target: T1, Latent membrane protein 1 (Human herpesvirus 4 (strain B95-8), UniProt P03230); test: LMP1 TES1 pathway selectivity over dsRED control – imaging, HEK293T, dual-color eGFP/dsRED, cherry-picks, selectivity assay for LMP1 NF-kB inhibitor project, dose response (AID 588398); format: functional, cell-based
# T1 sequence (P03230 whole entry): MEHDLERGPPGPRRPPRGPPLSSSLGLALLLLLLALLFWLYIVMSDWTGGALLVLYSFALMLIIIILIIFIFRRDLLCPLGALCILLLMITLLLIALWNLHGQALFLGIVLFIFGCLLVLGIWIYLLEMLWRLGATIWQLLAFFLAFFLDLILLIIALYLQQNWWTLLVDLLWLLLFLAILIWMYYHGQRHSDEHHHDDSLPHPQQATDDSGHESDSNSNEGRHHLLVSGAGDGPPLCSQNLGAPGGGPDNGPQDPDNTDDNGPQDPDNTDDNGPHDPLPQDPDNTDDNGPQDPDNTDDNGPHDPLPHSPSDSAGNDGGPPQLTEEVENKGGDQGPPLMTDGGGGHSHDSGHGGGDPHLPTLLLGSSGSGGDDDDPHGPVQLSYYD
# [3] = Luminescence Cell-Based Dose Response HTS to Identify Inhibitors of 5'UTR Stem-Loop Driven Prion Protein mRNA Translation in H4 Neuroglioblastoma Cells. [Related pubchem assays: 1827 (Project Summary), 1813 (Primary HTS)]; format: functional
# HEK293 = test: EBV LMP1 TES2 canonical NF-kB signalling blockers – cell-based, HEK293, luciferase, cherry-pick, dose response (AID 588343); format: functional, Homo sapiens
# [4] = target: T2, Sentrin-specific protease 8 (Homo sapiens, UniProt Q96LD8); format: functional;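 further: luminescence read-out of SENP8 inhibition, dose-response confirmation following an ultra-high-throughput screen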
# T2 sequence (Q96LD8 whole entry): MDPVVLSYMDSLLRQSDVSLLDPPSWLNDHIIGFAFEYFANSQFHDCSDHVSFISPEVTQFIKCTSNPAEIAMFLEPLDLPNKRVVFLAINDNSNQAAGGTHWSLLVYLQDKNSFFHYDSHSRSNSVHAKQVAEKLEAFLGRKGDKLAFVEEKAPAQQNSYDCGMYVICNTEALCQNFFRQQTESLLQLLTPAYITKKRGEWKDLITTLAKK
# Caspase-3 = target: T3, Caspase-3 (Homo sapiens, UniProt P42574); format: functional;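 further: Dose-response selectivity test against caspase-3 for candidate inhibitors of sentrin-specific proteases (SENPs)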
# T3 sequence (P42574 whole entry): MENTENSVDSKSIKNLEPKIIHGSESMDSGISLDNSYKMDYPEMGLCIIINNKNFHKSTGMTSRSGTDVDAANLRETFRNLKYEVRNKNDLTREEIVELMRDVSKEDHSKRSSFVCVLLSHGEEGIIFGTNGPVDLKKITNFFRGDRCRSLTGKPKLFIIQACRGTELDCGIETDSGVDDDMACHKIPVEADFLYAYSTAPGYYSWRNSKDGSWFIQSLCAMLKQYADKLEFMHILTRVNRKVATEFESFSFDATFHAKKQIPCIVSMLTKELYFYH
# [5] = target: T4, Sentrin-specific protease 7 (Homo sapiens, UniProt Q9BQF6); format: functional;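 further: Luminescence-based dose-response confirmation of ultra-high-throughput screening hits, measuring inhibition of SENP7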
# T4 sequence (Q9BQF6 whole entry): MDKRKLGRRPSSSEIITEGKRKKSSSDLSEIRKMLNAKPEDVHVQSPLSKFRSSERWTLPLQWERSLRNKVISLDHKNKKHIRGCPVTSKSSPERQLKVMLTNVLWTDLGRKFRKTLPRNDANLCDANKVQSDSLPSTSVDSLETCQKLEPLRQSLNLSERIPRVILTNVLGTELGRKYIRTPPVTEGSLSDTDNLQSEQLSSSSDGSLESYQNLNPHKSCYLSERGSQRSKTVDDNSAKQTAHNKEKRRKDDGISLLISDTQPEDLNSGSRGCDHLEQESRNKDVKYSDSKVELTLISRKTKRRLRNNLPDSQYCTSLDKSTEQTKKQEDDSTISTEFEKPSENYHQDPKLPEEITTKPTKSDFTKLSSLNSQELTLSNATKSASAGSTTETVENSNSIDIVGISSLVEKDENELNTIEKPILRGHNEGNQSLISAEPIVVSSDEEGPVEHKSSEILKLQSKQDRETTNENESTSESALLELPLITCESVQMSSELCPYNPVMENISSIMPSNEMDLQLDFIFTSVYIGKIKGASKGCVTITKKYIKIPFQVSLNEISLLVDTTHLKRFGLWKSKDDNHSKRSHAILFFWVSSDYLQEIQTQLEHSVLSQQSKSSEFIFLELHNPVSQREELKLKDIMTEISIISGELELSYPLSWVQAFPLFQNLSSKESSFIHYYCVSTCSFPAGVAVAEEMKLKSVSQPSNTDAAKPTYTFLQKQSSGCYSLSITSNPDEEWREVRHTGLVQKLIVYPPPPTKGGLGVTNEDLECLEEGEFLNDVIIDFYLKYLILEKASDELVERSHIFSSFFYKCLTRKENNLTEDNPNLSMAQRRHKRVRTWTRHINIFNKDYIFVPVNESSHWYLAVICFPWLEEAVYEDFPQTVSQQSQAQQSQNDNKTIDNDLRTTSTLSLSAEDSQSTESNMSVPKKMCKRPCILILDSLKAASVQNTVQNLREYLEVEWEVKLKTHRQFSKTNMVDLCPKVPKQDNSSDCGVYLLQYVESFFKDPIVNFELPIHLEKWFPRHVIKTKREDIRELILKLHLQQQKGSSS
# [6] = target: T5, Sentrin-specific protease 6 (Homo sapiens, UniProt Q9GZR1); format: functional;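 further: Luminescence-based dose-response confirmatory assay of SENP6 inhibition, following up an ultra-high-throughput screen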
# T5 sequence (Q9GZR1 whole entry): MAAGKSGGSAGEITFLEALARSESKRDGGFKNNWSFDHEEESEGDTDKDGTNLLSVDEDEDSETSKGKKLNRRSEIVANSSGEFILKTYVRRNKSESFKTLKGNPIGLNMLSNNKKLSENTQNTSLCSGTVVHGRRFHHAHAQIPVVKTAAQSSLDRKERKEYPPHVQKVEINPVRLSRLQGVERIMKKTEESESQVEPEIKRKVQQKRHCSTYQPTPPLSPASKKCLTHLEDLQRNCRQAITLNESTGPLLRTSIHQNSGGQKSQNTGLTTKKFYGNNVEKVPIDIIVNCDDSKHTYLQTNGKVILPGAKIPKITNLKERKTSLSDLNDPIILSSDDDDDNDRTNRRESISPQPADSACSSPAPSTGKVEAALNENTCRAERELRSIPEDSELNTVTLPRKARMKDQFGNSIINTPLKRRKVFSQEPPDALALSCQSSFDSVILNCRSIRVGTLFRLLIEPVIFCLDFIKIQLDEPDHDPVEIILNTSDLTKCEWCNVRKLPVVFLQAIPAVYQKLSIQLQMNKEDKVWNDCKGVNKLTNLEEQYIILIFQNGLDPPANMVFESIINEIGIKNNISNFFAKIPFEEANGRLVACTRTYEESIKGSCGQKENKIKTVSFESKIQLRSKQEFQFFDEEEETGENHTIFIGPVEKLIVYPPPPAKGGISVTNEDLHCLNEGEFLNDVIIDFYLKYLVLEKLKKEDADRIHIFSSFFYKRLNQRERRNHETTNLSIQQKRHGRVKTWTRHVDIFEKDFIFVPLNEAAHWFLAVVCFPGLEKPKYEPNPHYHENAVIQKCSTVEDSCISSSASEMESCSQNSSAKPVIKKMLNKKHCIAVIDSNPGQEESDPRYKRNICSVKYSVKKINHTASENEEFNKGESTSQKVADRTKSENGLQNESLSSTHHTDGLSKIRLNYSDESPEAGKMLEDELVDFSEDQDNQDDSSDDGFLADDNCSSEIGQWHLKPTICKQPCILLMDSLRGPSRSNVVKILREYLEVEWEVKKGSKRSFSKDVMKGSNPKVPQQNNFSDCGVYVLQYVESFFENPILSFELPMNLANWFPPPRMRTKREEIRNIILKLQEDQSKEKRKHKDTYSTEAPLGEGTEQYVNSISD
# Interleukin-8 [7] = target: T6, Interleukin-8 (Homo sapiens, UniProt P10145); test: Dose Response confirmation of uHTS small molecule hits for cystic fibrosis induced NFkb Inhibitors in a TNFa-induced IL8 counterscreen.; format: functional; details: read-out: IC50_Mean
# T6 sequence (P10145 whole entry): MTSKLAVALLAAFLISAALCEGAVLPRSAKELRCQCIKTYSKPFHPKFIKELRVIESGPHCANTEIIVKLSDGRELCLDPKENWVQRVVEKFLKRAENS
# Interleukin-8 [8] = target: T6, Interleukin-8; test: Dose Response confirmation of uHTS small molecule hits for cystic fibrosis induced NFkb Inhibitors in a PAF-induced IL8 counterscreen.; format: functional; details: read-out: IC50_Mean
# [9] = target: T7, Mitochondrial peptide methionine sulfoxide reductase (Bos taurus, UniProt P54149); format: functional;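 further: absorbance read-out, biochemical high-throughput dose-response screen for MsrA inhibitors, confirmatory; recombinant bovine MsrA coupled to E. coli TrxB with NADPH and selenocystamine; potency is for inhibitors of MsrA activity on DMSO substrate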
# T7 sequence (P54149 whole entry): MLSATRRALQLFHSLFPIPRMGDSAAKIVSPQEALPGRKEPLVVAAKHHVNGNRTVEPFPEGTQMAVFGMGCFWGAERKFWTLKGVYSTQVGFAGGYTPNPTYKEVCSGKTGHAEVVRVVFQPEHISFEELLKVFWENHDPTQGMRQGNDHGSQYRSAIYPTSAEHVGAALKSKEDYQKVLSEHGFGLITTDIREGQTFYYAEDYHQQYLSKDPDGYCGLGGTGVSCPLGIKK
# Aminopeptidase N = target: T8, Aminopeptidase N (Plasmodium falciparum FcB1/Columbia, UniProt O96935); test: malaria alanyl aminopeptidase activity blockers – biochemical, fluorogenic H-Leu-NHMec substrate, 1536-well (AID 1445); design: species or system Plasmodium falciparum 3D7, 3D7
# T8 sequence (O96935 whole entry): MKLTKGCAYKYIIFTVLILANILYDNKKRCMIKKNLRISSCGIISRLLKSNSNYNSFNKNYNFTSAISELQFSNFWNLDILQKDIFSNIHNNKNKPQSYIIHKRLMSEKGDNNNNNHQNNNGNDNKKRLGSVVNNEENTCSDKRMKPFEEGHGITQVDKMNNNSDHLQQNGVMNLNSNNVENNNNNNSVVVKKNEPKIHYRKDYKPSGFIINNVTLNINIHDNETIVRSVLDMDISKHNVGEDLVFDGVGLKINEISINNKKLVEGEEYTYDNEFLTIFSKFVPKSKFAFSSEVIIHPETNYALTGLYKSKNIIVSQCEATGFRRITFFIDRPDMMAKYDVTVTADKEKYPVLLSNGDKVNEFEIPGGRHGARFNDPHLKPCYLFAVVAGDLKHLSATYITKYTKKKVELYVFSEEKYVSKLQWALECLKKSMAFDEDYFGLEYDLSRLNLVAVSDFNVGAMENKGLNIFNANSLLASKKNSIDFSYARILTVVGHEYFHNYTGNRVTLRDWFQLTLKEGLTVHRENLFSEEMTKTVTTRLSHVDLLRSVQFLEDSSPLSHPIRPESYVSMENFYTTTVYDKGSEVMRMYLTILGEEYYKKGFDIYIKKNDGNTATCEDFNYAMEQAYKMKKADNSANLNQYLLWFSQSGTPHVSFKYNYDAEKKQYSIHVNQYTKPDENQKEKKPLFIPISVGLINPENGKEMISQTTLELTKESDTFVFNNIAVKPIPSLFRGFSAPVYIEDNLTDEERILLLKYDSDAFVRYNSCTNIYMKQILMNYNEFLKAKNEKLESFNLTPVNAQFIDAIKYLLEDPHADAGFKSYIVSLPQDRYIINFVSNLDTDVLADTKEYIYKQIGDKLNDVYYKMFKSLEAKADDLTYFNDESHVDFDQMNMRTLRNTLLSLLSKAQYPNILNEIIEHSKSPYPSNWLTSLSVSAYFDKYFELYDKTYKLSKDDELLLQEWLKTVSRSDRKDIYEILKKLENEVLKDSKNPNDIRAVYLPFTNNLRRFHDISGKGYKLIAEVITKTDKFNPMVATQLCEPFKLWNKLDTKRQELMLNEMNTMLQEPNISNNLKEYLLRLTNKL
# Phospholipase A2 = Phospholipase A2 (Homo sapiens, UniProt P04054); format: functional;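 further: confirmatory dose-response counterscreen on phospholipase A2, testing hits that came from an ultra-high-throughput screen for ATG4B inhibitors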
# [10] = luciferase reporter signal suppression in cells – H4 neuroglioma cells, luminescence, dose response (AID 1990); format: functional, cell-based
# Chain of Phospholipase A2 (P04054 whole entry): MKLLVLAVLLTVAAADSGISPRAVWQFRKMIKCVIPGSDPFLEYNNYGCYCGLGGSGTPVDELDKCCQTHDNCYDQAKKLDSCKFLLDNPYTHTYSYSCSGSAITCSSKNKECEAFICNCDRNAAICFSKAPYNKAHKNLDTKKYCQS
structure (smiles),measurement,setting,value
c1ccc(-c2cn3c4c(sc3n2)CCCC4)cc1,EC50,[1],6.38 µM (active)
same,AC50,[2],47.1 µM (active)
same,EC50,[3],6.75 µM (active)
same,AC50,HEK293; hek293,2.07 µM (active)
CC(C)C(=O)Nc1ccc2nn(-c3ccccc3)nc2c1,IC50,[4],> 100 µM (inactive)
same,IC50,Caspase-3,26.7 µM (active)
same,IC50,[5],8.73 µM (active)
same,IC50,[6],> 100 µM (inactive)
O=C1C=C(NC2=CC3OC(c4ccccc4)OCC3OC2=O)CCC1 (stereo not given),IC50,Interleukin-8 [7],1.07 µM (active)
same,IC50,Interleukin-8 [8],1.5 µM (active)
Cc1ccccc1-c1nc2cc(Cl)ccc2o1,IC50,[4],79.7 µM (active)
same,IC50,Caspase-3,12.9 µM (active)
same,IC50,[5],4.69 µM (active)
same,IC50,[6],13.7 µM (active)
CCOP(=O)(Nc1ccc2c(c1)C(=NNC(N)=S)c1ccccc1-2)OCC,IC50,[9],95.9 µM (inactive)
O=Cc1cc(OCc2ccccc2)ccc1[B-](F)(F)F,AC50,[2],1.14 µM (active)
same,AC50,"HEK293; Homo sapiens, HEK293",2.86 µM (active)
COCc1cc(C)n(CC(=O)N/N=C/c2ccc(-c3ccc(Cl)c(C(=O)O)c3)o2)c(=O)c1C#N,IC50,[9],99.4 µM (inactive)
same,IC50,Aminopeptidase N,24.7 µM (active)
CC(C)(C)C(=O)CSc1ncnc2sc3c(c12)CCC3,IC50,Phospholipase A2,2.59 µM (active)
N#CC1=C(N)N2C(=C(C#N)C1c1cccc(Br)c1)Nc1ccccc12 (stereo not given),EC50,[1],12.9 µM (active)
same,AC50,[2],54 µM (active)
same,EC50,[3],14.6 µM (active)
same,AC50,"HEK293; Homo sapiens, HEK293",3.62 µM (active)
same,EC50,[10],11.3 µM (active)
